US5770688A, “Method and composition for the treatment of mammalian HIV infection” (GSF-Forschungszentrum fur Umwelt und Gesundheit GmbH, priority 1989, dated 1998)

Tests used:
P24 = P24 production in melittin treated HIV infected cultures; type: cell-based
Source text: (§1) This means, in essence, that the effect of melittin (Seq. ID NO:1) on the virus is to attack the virus before it is released from an infected cell although it is possible that a reduction in virus numbers may be possible during and immediately after the addition of melittin to a cell culture or otherwise. […] At this point in time, melittin is absent from the culture. […] This observation excludes any effect in the experiments to be explained by a direct effect of melittin on "cell free" virus, that is, virus released into the supernatant.
(§2) These characteristics appear to be due to the specific structure of the melittin amphiphilic helix. […] In this regard, treatment was at cultivation start, and measurement of infectivity was seven days post treatment. As was discussed earlier, maximum virus concentration in cultures of this type is not achieved for five days after cultivation. As should be understood and the conclusions which the inventors have drawn from same is that if the reduced viral infectivity seven days post treatment were only due to direct effects of melittin on the virus, then in that event, the melittin or an active fragment would have to be present as late as five days post treatment. […] Moreover, and if the reduction and supernatant infectivity was partly due to reduced virus production as opposed to incorrect virus assembly or destruction of newly synthesized virion, then, in that event, this should be reflected by reduced amounts of viral proteins within the cells and/or in their supernatants of the melittin treated cultures. To determine whether this hypothesis is correct the inventors chose the P24 marker as a marker for viral protein production. […] However, following fourteen hours of incubation with melittin, there is a marked reduction of P24 within the cells as well as in the supernatant (down to 60%).

[1] = disappearance of melittin from culture medium / uptake by cells; type: in vitro ADME
Source text: as §1, §2

[2] = blood serum levels of melittin after injection; type: in vivo, cats
Description: During the experiment it was determined that detectable blood serum levels of melittin (Seq. ID NO:1) of about 5 ng/ml could be detected following an injection of melittin equal to […] a few minutes after injection. […] In vitro data has shown that melittin, after this time interval, is found within the cells where it can be detected in tact for more than 48 hours. The LD50 (lethal dose where 50% of the animals perish) for melittin is not known for cats. In the present experiment, both cats M and G were treated twice weekly with subcutaneous injections over a period of eight weeks. During the first three weeks, each cat received increasing dosages of melittin (Seq. ID NO:1) beginning with a 50 mg/kg bodyweight injection, followed by injections of 100 mg/kg, and then escalating to 150, 225, 375 and 500 mg/kg at the sixth injection. Upon reaching this level, the melittin was administered in a constant dosage of 500 mg/kg twice weekly, for the remaining five weeks. […] The quantitative effect of melittin on FIV replication was determined quantitatively by utilizing FIV-PCR employing nested primers from the gag region. Quantification was based upon the determination of amplified product in identical samples which have been amplified after different cycle times. This is best seen by reference to FIG. 47A. Furthermore, each of the cats were clinically investigated in detail. […]

cell free HIV = assay: influence of melittin on cell free HIV (P24 determination, infectivity); conditions: incubation of cell free HIV

Gly-Ile-Gly-Ala-Val-Leu-Lys-Val-Leu-Thr-Thr-Gly-Leu-Pro-Ala-Leu-Ile-Ser-Trp-Ile-Lys-Arg-Lys-Arg-Gln-Gln-Amide [melittin]
cellular vs supernatant P24 reduction (P24): cellular P24 seems to be reduced sooner and more strongly than supernatant P24
P24 within the cells as well as in the supernatant (P24; fourteen hours of incubation, down to, 840 min): 60%
reduction of cellular and supernatant P24 (P24; three hours of incubation): only a slight reduction
virus protein synthesis (P24 formation within the cell) (P24; totally infected (clone) cultures): virus protein synthesis is reduced
absorption by the cell ([1]; after introduction to the culture): absorbed by the cell within hours after introduction to the culture
half-life of melittin ([1]; cell culture): 19 h
melittin in the medium ([1]; two hours after addition to the culture): not measurable in the medium two hours after addition to the culture
disappearance from the serum ([2]; in vivo): disappears quickly from the serum
detectable blood serum levels ([2]; injection equal to 200 mg/kg, a few minutes after injection): about 5 ng/ml
detection of the P24 antigen (cell free HIV): does not impair the detection of the P24 antigen
virus infectivity of cell free HIV (cell free HIV): cause the virus infectivity to be reduced
